{
  "source": "ChEMBL document CHEMBL4364356",
  "about": "“Deuteration of BTZ043 Extends the Lifetime of Meisenheimer Intermediates to the Antituberculosis Nitroso Oxidation State” (ACS Med Chem Lett, 2019)",
  "key": {"[1]": {"assay": "Prodrug conversion in THF/MeOH solution assessed as first order rate constant for protonated/deuterated metabolite (6HD) formation at 0.01 mmol treated with NaBH4 by UV-visible spectroscopic analysis", "type": "ADME"}, "[2]": {"assay": "Prodrug conversion in THF/MeOH solution assessed as first order rate constant for deuterated metabolite (6D2) formation at 0.01 mmol treated with NaBD4 by UV-visible spectroscopic analysis", "type": "ADME"}, "[3]": {"biological_target": "T1, Decaprenylphosphoryl-beta-D-ribose oxidase (Mycobacterium tuberculosis (strain ATCC 25618 / H37Rv)) (UniProt P9WJF1)", "T1 sequence (whole entry)": "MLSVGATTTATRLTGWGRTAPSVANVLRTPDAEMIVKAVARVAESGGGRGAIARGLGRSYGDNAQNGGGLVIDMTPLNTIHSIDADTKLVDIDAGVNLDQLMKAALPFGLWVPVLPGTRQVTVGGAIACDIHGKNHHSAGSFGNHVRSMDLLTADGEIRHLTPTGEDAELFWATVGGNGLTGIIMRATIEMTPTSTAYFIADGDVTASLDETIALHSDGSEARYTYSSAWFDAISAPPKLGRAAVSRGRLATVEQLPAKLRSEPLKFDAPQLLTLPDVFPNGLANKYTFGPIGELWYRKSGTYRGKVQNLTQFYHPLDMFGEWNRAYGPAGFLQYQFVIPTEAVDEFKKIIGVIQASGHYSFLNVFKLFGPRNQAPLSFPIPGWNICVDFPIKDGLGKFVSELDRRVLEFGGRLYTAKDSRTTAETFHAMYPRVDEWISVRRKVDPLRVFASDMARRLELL", "assay": "Inhibition of DprE1 in Mycobacterium tuberculosis H37Rv assessed as reduction in bacterial growth at <0.004 uM measured in MABA media"}, "[4]": {"biological_target": "T1, Decaprenylphosphoryl-beta-D-ribose oxidase (Mycobacterium tuberculosis (strain ATCC 25618 / H37Rv))", "assay": "Inhibition of DprE1 in Mycobacterium tuberculosis H37Rv assessed as reduction in bacterial growth at 0.02 to 0.03 uM measured in GAS medium"}, "[5]": {"assay": "Drug recovery in THF/MeOH solution measured after 3 days by 1H-NMR analysis", "details": "tested as the 2H-labelled form"}, "[6]": {"assay": "Prodrug conversion in THF/MeOH solution assessed as first order rate constant for protonated metabolite (6H2) formation at 0.01 mmol treated with NaBH4 by UV-visible spectroscopic analysis", "type": "ADME"}},
  "note": "Active and inactive are the calls of the source. No cut-off for these calls is given here.",
  "data": [
    {"smiles": "[2H]c1c(C(F)(F)F)c([2H])c2c(=O)nc(N3CCC4(CC3)OC[C@H](C)O4)sc2c1[N+](=O)[O-]", "values": [
      {"measurement": "K", "setting": "[1]", "value": 2.8, "unit": "×10⁻⁵ /s"},
      {"measurement": "K", "setting": "[2]", "value": 1.2, "unit": "×10⁻⁵ /s"}
    ]},
    {"smiles": "C[C@H]1COC2(CCN(c3nc(=O)c4cc(C(F)(F)F)cc([N+](=O)[O-])c4s3)CC2)O1", "note": "[BTZ-043]", "values": [
      {"measurement": "inhibition", "setting": "[3]", "value": "Active"},
      {"measurement": "inhibition", "setting": "[3]; tested as the 2H-labelled form", "value": "Active"},
      {"measurement": "inhibition", "setting": "[4]", "value": "Active"},
      {"measurement": "inhibition", "setting": "[4]; tested as the 2H-labelled form", "value": "Active"},
      {"measurement": "Drug recovery", "setting": "[5]", "value": 95, "unit": "%"},
      {"measurement": "K", "setting": "[6]", "value": 5.6, "unit": "×10⁻⁵ /s"}
    ]}
  ]
}
